Each structure is given as a SMILES string. pKi: −log10 of the molar value.

For orientation: pKi means the negative decadic logarithm of the Ki, by convention in mol/L.

Sequence of Asialoglycoprotein receptor 1 (Rattus norvegicus) (P02706 whole entry, looked up): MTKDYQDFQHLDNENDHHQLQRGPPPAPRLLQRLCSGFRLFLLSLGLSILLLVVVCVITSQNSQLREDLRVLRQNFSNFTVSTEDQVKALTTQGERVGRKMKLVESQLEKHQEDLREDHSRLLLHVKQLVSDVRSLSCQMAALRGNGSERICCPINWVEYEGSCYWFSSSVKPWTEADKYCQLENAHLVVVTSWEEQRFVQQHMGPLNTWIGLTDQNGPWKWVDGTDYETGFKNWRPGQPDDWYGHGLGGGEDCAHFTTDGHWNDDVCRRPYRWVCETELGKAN

The test concerns the target Asialoglycoprotein receptor 1 (Rattus norvegicus) (UniProt P02706). As to the kind of experiment: Affinity tested by in vitro competition assay of [125I]ASOR binding to parenchymal rat liver cells.
Regarding `O=C(CCCCO[C@@H]1O[C@@H](CO)[C@H](O)[C@H](O)[C@@H]1O)NCCCNC(=O)CCOCC(COCCC(=O)NCCCNC(=O)CCCCO[C@@H]1O[C@@H](CO)[C@H](O)[C@H](O)[C@@H]1O)(COCCC(=O)NCCCNC(=O)CCCCO[C@@H]1O[C@@H](CO)[C@H](O)[C@H](O)[C@@H]1O)NC(=O)CNC(=O)OCc1ccccc1` [Galactoside analogue], the pKi is 7.03.
Next, `O=C(CCCCO[C@@H]1O[C@@H](CO)[C@H](O)[C@H](O)[C@@H]1O)NCC(=O)NCCCC(=O)OCC(COC(=O)CCCNC(=O)CNC(=O)CCCCO[C@@H]1O[C@@H](CO)[C@H](O)[C@H](O)[C@@H]1O)(COC(=O)CCCNC(=O)CNC(=O)CCCCO[C@@H]1O[C@@H](CO)[C@H](O)[C@H](O)[C@@H]1O)NC(=O)CNC(=O)OCc1ccccc1` [Galactoside analogue]: 7.03; `CC(C)CCCC(C)[C@H]1CC[C@H]2[C@@H]3CC=C4C[C@@H](OC(=O)CNC(=O)CCCCC(=O)NCC(=O)NC(COCOCCOCCOCCOCCO[C@@H]5O[C@@H](CO)[C@H](O)[C@H](O)[C@@H]5O)(COCOCCOCCOCCOCCO[C@@H]5O[C@@H](CO)[C@H](O)[C@H](O)[C@@H]5O)COCOCCOCCOCCOCCO[C@@H]5O[C@@H](CO)[C@H](O)[C@H](O)[C@@H]5O)CC[C@]4(C)[C@H]3CC[C@]12C` (stereo partly drawn) [TG(20)C-Galactoside analogue]: 6.70.
